In patent publication US20130129675A1, “INTERFERON THERAPIES IN COMBINATION WITH BLOCKADE OF STAT3 ACTIVATION” (BOARD OF REGENTS, THE UNIVERSITY OF TEXAS SYSTEM, priority 2009, published 2013):

Tests used:
[1] = system: B16 cells; assay: MHC I, MHC II and NK cell ligands on B16 melanoma cells (flow cytometry); type: cell-based, murine; details: WP1193 2 μM, IFN-α 20 ng/ml; for MHC I expression on B16: 24 hours (FIG. 6A); for surface H60, Rae-1 and CD155 (NK ligands) on B16: 24 hours (FIG. 6B)
Procedure: To ascertain the MHC I, MHC II, and NK ligands expressed on melanoma cells, B16 cells were seeded at a density of 2×10^6 cells/well in 24-well culture plates and cultured with the RPMI 1640 medium in the absence or presence of WP1193 (2 μM) and/or INF-α (20 ng/ml) for 24 hours. Afterwards, the cells were harvested and washed twice, and 10^6 cells in duplicate were Fc blocked with purified rat anti-mouse CD16/CD32 (BD Biosciences) for 15 minutes at room temperature. The B16 cells were washed and then stained for approximately 30 minutes at 4° C. with FITC-conjugated rat anti-mouse MHC I mAb (Abeam, Cambridge, Mass.), PE-conjugated rat anti-mouse MHC Class II mAb (Abeam), FITC-conjugated rat anti-mouse Rae-1 mAb (R&D Systems), APC-conjugated rat anti-mouse H60 mAb (R&D Systems) or PE-conjugated rat anti-mouse CD155 mAb (Biolegend). Negative control cells were stained with the corresponding isotypes. Following incubation, the cells were washed twice with FACS buffer and then analyzed with a BD FACSCalibur with gates set for viable cells.
Because we observed NK and CD8+ T cell-mediated anti-tumor cytotoxicity were enhanced with combinational therapy, to ascertain if either IFN-α, WP1193 or both were augmenting the expression of MHC or NK activating receptors or their ligands, splenocytes and B16 cells were treated with RPMI 1640 medium (control), WP1193 (2 μM), IFN-α (20 ng/ml), or IFN-α (20 ng/ml)+WP1193 (2 μM) for 24 hours. The NK-activating ligands (Rae-1, H60 and CD155) and MHC (I and II) on B16 cells and the NK-activating receptors (NKG2D, KLRD1, NKp46 and DNAM-1) on NK1.1+ NK cells were analyzed by flow cytometric analysis.

[2] = system: B16 target cells; assay: Ex vivo splenocyte cytotoxicity assay; type: cell-based, mice; details: 48 h
From the text: Spleens from 4- to 6-week-old female mice in the above treatment schema were harvested and disassociated into a single cell suspension. After erythrocytes were lysed with 1×RBC lysis buffer (eBioscience), splenocytes were washed once with RPMI 1640 medium and were ready as effector cells for the standard cytotoxicity assay. Wang L, Yi T, Kortylewski M, Pardoll D M, Zeng D, Yu H, IL-17 Can Promote Tumor Growth Through An IL-6-Stat3 Signaling Pathway, J Exp Med 2009; 206:1457-64. For target cells, B16 cells in RPMI 1640 medium were cultured for 3 days, trypsinized, pelleted, and resuspended in FACS buffer at room temperature to achieve a concentration of 10^6 cells/ml. Carboxy-fluorescein diacetate succinimidyl ester (CFSE) stock solution (CellTrace CFSE Cell Proliferation Kit; Invitrogen, Eugene, Oreg.) was added to achieve a final concentration of 4 μM. The mixture was incubated at 37° C. for 10 minutes, and then the staining reaction was quenched by the addition of five volumes of ice-cold PBS for 5 minutes. The B16 cells were washed three times in RPMI 1640 medium and plated for the cytotoxicity assay. The ratios of splenocyte effector cells to B16 target cells were 30:1 and 100:1. After 48 h of incubation, the CFSE-labeled B16 melanoma cells were removed from the plates with trypsin-EDTA (0.05%) and analyzed by FACS. The B16 cells were stained with propidium iodide (PI; BD Biosciences) to distinguish viable cells from nonviable cells. B16 cells that were stained with CFSE and PI were considered nonviable. Flow cytometric acquisition of the B16 target cells was performed with a FACSCalibur flow cytometer (BD Biosciences), and data analysis was performed using FlowJo software (TreeStar, Ashland, Oreg.).
To ascertain the underlying in vivo immunological mechanism that is responsible for the therapeutic efficacy, we examined splenocytes cytotoxic responses directed against B16 melanoma cells. Splenocytes from control mice and mice treated with WP1193, IFN-α, or IFN-α+WP1193 were isolated and co-cultured with CFSE-labeled B16 target cells for 48 hours to assess splenocyte cytotoxicity against B16 cells. […] Furthermore, in mice treated with both IFN-α and WP1193, there was additive enhanced cytotoxic clearance of the B16 target cells compared with mice that were treated with either WP1193 or IFN-α alone (P<0.01;).

[3] = system: Tregs (CD4+Foxp3+); assay: Inhibition of Tregs in vivo; set-up: species or system mice; details: for number of Foxp3+ Tregs in the thymus, lymph nodes, or spleen: alone or in combination; for % of CD4+ Foxp3+ Cells: bone marrow, control 24.5; for % of CD4+ Foxp3+ Cells / inhibition of the number of Tregs (CD4+Foxp3+) in the bone marrow: non-tumor bearing mice treated for 16 days; for inhibition of the number of Tregs (CD4+Foxp3+) in the peripheral blood / inhibition of the number of Tregs (CD4+Foxp3+) in the bone marrow: compared with control
Procedure: Determination of inhibition of Tregs in vivo. […] Single-cell suspensions were prepared from bone marrows, lymph nodes, spleens, thymuses and peripheral blood of mice. Single cells were surface-stained by FITC-conjugated anti-CD4 (L3T4), PerCP-conjugated anti-CD8 (53-6.7) and APC-conjugated anti-CD25 (PC61), and the cells were further subjected to intracellular staining with PE-conjugated mAbs to mouse FoxP3 (clone FJK-16s; eBioscience, San Diego, Calif.) using staining buffers and conditions specified by the manufacturer.
In vivo treatment of mice with IFN-α and WP1193 inhibits bone marrow-derived Tregs but combinational therapy is not synergistic. To ascertain the in vivo effects of IFN-α and WP1193, and in combination on Tregs, non-tumor bearing mice were treated for 16 days.

[4] = system: intracerebral B16 melanoma / LMD; assay: Etiology of death (LMD or tumor progression) in intracerebral B16 model; type: in vivo, C57BL/6J mice; details: for animals with LMD at death: autopsy at treatment failure, control 75%
From the text: Both the control group (n=8) and in those treated with a sub-therapeutic dose of WP1193 (n=9) had macroscopic evidence of LMD, 75% and 67%, respectively, (Data not shown). In contrast, in those mice treated with IFN-α (n=6) or the combination of IFN-α and WP1193 (n=4), only 17% in the former and none of the animals treated with the combination died of LMD (FIG. 5). As would be expected, in a sub-analysis within each treatment group, mice that developed LMD died sooner than did those that died of tumor. Specifically, in the control group, median survival was 16.7±0.7 days in those mice that developed LMD and 18.5±1.5 days in those that died of tumor. Furthermore, in the sub-therapeutic WP1193 group, median survival was 17.7±0.3 days in mice that developed LMD and 20±2.1 days in those that died of tumor. In contrast, within the IFN-α treatment group, the median survival of mice with progressive tumor was 25.8±2.5 days, which was further increased to 29.7±5.5 days in the combination treatment group. Within individual treatment groups there was insufficient power to draw statistically meaningful conclusions; however when we assessed all mice who died of LMD, the median survival was 16.9±0.4 days compared with 24.7±2 days for mice dying of tumor progression (P=0.0006), indicating this model system conforms to the negative prognostic influence of LMD observed in human patients.

[5] = 30:1 ratio of splenocytes to B16 Tumor Cells, control 25.2
[6] = 100:1 ratio of splenocytes to B16 Tumor Cells, control 38.1
[7] = sub-analysis within treatment group

Compound | MHC I expression on B16 [1] | surface H60, Rae-1 and CD155 (NK ligands) on B16 [1] | % of B16 Killimg [2, 5] | % of B16 Killimg [2, 6] | suppressive activity of sorted Tregs ([3]; FoxP3-GFP reporter mouse, IFN-α-treated or control) | number of Foxp3+ Tregs in the thymus, lymph nodes, or spleen [3] | % of CD4+ Foxp3+ Cells [3] | inhibition of the number of Tregs (CD4+Foxp3+) in the peripheral blood [3] | inhibition of the number of Tregs (CD4+Foxp3+) in the bone marrow [3] | animals with LMD at death [4] | median survival in mice that died of tumor [4, 7] | median survival in mice that developed LMD [4, 7]
IFN-α | enhanced | do not alter the receptor density of the NK ligands | 40.1% | 51.6% | did not see a decrease in the suppressive activity | did not inhibit | 5.2% | 46% | 78% | 17% | 25.8 ± 2.5 days | –
N#C/C(=C\c1cccc(Br)n1)C(=O)N[C@H](c1ccccc1)C1CC1 [WP1193, (S,E)-3-(6-bromopyridin-2-yl)-2-cyano-N-(cyclopropyl(phenyl)methyl)acrylamide] | not further enhanced | do not alter the receptor density of the NK ligands | 29.8% | 42.0% | – | did not inhibit | 16.8% | 20% | 31% | 67% | 20 ± 2.1 days | 17.7 ± 0.3 days
